“Also recorded” adds a separate entry of the source.
What was measured:
CgnE [1] = assay: ICP-MS iron binding to CgnE; design: species or system Chondromyces crocatus CM c5; details: 5 mM fresh FeCl2, 30 min, PD10 desalting
Description: Inductively Couple Plasma-Mass Spectrometry
Experimental solutions were analysed using an Agilent 7500ce fitted with a self-aspire nebuliser tuned for a flow of 0.1 mL min-1 at the Scottish Universities Environmental Research Centre (SUERC).
Samples were initially diluted to a protein concentration of 2 µM in 0.8 M HNO3. CgnB was dialyzed 4 x for 1 h at a dilution of 1 : 5000 in buffer containing 100 mM EDTA prior to analysis. CgnE was incubated with freshly prepared FeCl2 for 30 min (5 mM final FeCl2 concentration) and then subjected to a PD10 desalting column in CgnE buffer before the protein was diluted in HNO3 for analysis. For Fe2+ analysis, flow in the collision cell was set to 2 mL min -1 of H. The metal concentration was calculated by reference to a three -standard calibration line. Each sample value was corrected for procedural blank containing ultrapure water and 0.8 M HNO 3.
CgnB and CgnE sequences were compared with TBLA STN[22] to whole-genome shotgun contigs of taxa listed in (Supplementary table 4). We have retrieved the corresponding genome segments and identified tandem appearances of homologous genes, as well as searched for candidate peptides in their genomic neigh borhood with custom Python and Perl scripts. Phylogenetic trees were constructed with RAxML[23] using the PROTGAMMAJTT model. Bootstrap values were computed using 100 bootstrap […]

CgnB, CgnC and CgnE = assay: In vitro processing of CgnA and variants by CgnB, CgnC and CgnE (LC-MS); assay type: biochemical, Chondromyces crocatus CM c5
Description: All biochemical reactions were performed in 150 mM NaCl, 10 mM HEPES, 0.5 mM TCEP, pH 7.4. For CgnA–CgnB–CgnC reactions, a mixture of 50 µM CgnA, 10 µM CgnB, 5 µM CgnC, 4 mM ascorbic acid, 2.5 mM FeCl2 and 1 mM 2-oxoglutaric acid was incubated at 37 °C for 2 h. For CgnA–CgnB–CgnC–CgnE reactions, a mixture of 50 µM CgnA, 10 µM CgnB, 5 µM CgnC, 5 µM CgnE, 4 mM ascorbic acid, 2.5 mM FeCl2 and 1 mM 2-oxoglutaric acid was incubated at 37 °C for 2 h. The standard reaction volume was 50 µl. Proteins were precipitated by adding 50% acetonitrile and freezing the mixture at −80 °C for 2 h prior to liquid chromatography and mass spectrometry (LC-MS) analysis.

CsrA = details: in vitro; cited from earlier work
From the text: Their biosynthesis begins with the ribosomal expression of a short gene to yield a precursor peptide that usually consists of an N-terminal ‘leader’ and a C-terminal ‘core’ peptide. While the leader peptide is important for substrate recognition by the enzyme(s) installing class-defining modifications, the core peptide is ultimately converted into the final product and can be extensively modified[17]–[19]. Fe ...

CgnD [2] = assay: Labeling of CgnD with PMSF (LC-MS); assay type: biochemical, Chondromyces crocatus CM c5; details: 10 µM CgnD, 10-fold excess PMSF, room temperature, 10 min
Description: All structural images portrayed were rendered in PyMOL (The PyMOL Molecular Graphics System Version 1.8.6.0, Schrödinger, LLC).
Purified, lyophilized 3a/b (see above) was dissolved in 20 mM sodium phosphate pH 7.2 containing 5%
D2O. A similar sample of unmodified CgnA was analyzed for comparison. 1D 1H, 2D {1H,1H} NOESY, TOCSY and DQF-COSY and 2D {13C,1H} HSQC spectra were recorded for each sample on a Bruker AVANCE IIIHD/Ultrashield 600 spectrometer equipped with a TCI cryoprobe using Bruker TopSpin 3.5 software. After excluding peaks from unmodified CgnA in the modified sample, the assignments of the C-terminal residues of the modified CgnA species were made using COSY, TOCSY and inter - residue NOE cross peaks using CCPNMR analysis assign v3. 13C shifts were identified from the HSQC spectra where sensitivity allowed. The majority of the expected resonances were easily identified, but the near-degeneracy of the former tyrosine Hα and Hβ shifts meant that the nOe cross peaks required to identify the stereochemistry at the tyrosine Cβ were not resolved. Indeed, the observation of two separate […]
Phenylmethylsulfonylfluoride (PMSF) can selectively modifying the catalytic serine of serine hydrolases via the formation of a covalent bond with the protein and can therefore be detected even in denaturing LC-MS conditions by a positive mass shift corresponding to the compound[21]. […]

CgnC = assay: MST binding of CgnA to CgnC; design: species or system Chondromyces crocatus CM c5; details: CgnC titrated
Description: (§1) Supplementary Figure 13: Analysis of protein complexes using SEC and MST. a MST measurements to determine KDs of the protein pairs given. X/Y – Affinity of fluorescently labeled X to Y (titrated). + Z: Z was supplied at a constant, high concentration. […]
(§2) Both samples were incubated at room temperature for 10 min prior to LC-MS analysis.
(§3) Microscale Thermophoresis
(§4) MST binding affinity measurements were performed using a Monolith NT 115 system (Nanotemper Technologies) with MO.Control v1.6 software. Labeling of different proteins was performed using the Monolith Labeling Kit RED-NHS 2nd generation according to the manufacturer’s instructions. For this, a 10 µM dilution of the desired protein was prepared in the supplied labeling buffer NHS (130 mM NaHCO3, 50 mM NaCl, pH 8.2). To yield a 600 μM dye solution, 25 μL DMSO was added to dry powder. For the labeling procedure, 7 μL of the freshly prepared dye solution was mixed with 7 μL of […]

CgnD [3] = assay: MST binding to CgnD; design: species or system Chondromyces crocatus CM c5; details: microscale thermophoresis
Target sequence in this assay (as listed by the source): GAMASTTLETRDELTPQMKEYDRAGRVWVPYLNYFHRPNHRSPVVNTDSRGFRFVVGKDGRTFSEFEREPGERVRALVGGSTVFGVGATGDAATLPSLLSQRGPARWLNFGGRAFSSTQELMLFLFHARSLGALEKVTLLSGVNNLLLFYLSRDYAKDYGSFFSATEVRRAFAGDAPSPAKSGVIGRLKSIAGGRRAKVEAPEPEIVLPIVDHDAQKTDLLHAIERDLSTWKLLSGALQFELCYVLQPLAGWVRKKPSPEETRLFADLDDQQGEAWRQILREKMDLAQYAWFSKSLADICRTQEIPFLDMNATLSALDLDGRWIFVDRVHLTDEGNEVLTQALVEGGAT

CgnE [4] = assay: MST binding of CgnA (or leader peptide) to CgnE; design: species or system Chondromyces crocatus CM c5
Description: as §1, §2, §3, §4
Target sequence in this assay (as listed by the source): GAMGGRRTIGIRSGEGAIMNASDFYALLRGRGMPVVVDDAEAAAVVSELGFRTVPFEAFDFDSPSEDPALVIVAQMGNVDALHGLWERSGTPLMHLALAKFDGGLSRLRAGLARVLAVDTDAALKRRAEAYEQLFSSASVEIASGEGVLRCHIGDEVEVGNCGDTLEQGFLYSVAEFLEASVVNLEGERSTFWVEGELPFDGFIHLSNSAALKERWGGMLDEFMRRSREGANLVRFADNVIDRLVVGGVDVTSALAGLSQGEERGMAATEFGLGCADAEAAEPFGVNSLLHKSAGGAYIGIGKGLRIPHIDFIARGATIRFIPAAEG

CgnB = assay: MST binding of CgnA (or leader peptide) to CgnB; design: species or system Chondromyces crocatus CM c5
Description: as §1, §2, §3, §4

Chain of CgnC (as listed by the source): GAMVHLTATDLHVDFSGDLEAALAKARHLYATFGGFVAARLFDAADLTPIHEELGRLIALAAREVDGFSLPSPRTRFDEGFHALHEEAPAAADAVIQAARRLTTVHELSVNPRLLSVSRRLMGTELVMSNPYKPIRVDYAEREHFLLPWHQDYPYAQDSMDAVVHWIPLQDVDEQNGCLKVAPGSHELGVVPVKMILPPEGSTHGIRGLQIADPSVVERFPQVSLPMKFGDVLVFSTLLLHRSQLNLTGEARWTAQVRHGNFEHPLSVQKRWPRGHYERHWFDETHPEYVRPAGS

[Cl][Fe][Cl] [FeCl2]
iron bound to CgnE (CgnE [1]): No iron could be detected

Ile-Tyr-Trp [core peptide, three-amino-acid core peptide of CgnA (Ile-Tyr-Trp for crocagin)]
turnover of the core peptide with leader peptide in trans (CgnB, CgnC and CgnE; CgnB–CgnC–CgnE reaction, leader peptide added in trans): marginal

CC[C@H](C)[C@H](NC)C(=O)N[C@@H]1C(=O)N2[C@H](C(=O)O)[C@@H](OC(N)=O)[C@@H]3c4ccccc4N([C@@H]1c1ccc(O)cc1)[C@@H]32 [compound 1, crocagin A]
inhibition of CsrA (CsrA): inhibits

O=S(=O)(F)Cc1ccccc1 [phenylmethylsulfonyl fluoride]
covalent labeling of CgnD (CgnD [2]): inability to label CgnD

MTMKKTIKQISAGDRSKKGNIYW [CgnA]
affinity of CgnA–CgnC (CgnC): No binding; also recorded: not CgnC, were able to bind CgnA
binding to CgnD (CgnD [3]): unable to detect binding
processing by CgnB, CgnC and CgnE (product formation/turnover) (CgnB, CgnC and CgnE; 50 µM CgnA, 10 µM CgnB, 5 µM CgnC, 5 µM CgnE, 4 mM ascorbic acid, 2.5 mM FeCl2, 1 mM 2-oxoglutaric acid, pH 7.4, 37 °C, 2 h, LC-MS): formation of a major product with high turnover; also recorded: consumption of CgnA (magenta) and the formation of a major product (+14 Da, blue) as well as minor products (+16 Da, green; +30 Da
product formation with CgnB and CgnC (CgnB, CgnC and CgnE; 50 µM CgnA, 10 µM CgnB, 5 µM CgnC, cofactors, 37 °C, 2 h): two additional product peaks detected when compared to CgnA–CgnE or CgnA–CgnC reactions
product formation with CgnC and CgnE (CgnB, CgnC and CgnE; CgnA + CgnC + CgnE with cofactors): formation of an additional, minor peak with a mass shift of +28 Da
product formation with CgnC and cofactors (CgnB, CgnC and CgnE; CgnA + CgnC + FeCl2, ascorbic acid, α-ketoglutarate): a new peak with a mass suggestive of hydroxylation (+16 Da), but the predominant peak remained unmodified CgnA; also recorded: formation of a minor +16 Da species
product formation with CgnC, no cofactors (CgnB, CgnC and CgnE; CgnA + CgnC without FeCl2, ascorbic acid and α-ketoglutarate): did not lead to observable product formation
product formation without CgnC (CgnB, CgnC and CgnE; CgnA with CgnB, CgnE or both, LC-MS): did not result in any observable product peak
Kd (CgnE [4]; Monolith NT 115, for CgnA: CgnE titrated, three independent samples, mean ± SD, read-out: KD (affinity) to CgnE): 1.8 µM
weaker binding to CgnE than CgnA (CgnE [4]; leader peptide vs CgnA): ~300 times
CgnA–CgnB interaction relative to CgnA–CgnE (CgnB; MST KD 10.5 vs 1.8 µM): five times weaker
CgnA–CgnB KD relative to SPR value (CgnB; MST vs surface plasmon resonance of ref 24): approximately one order of magnitude lower
Kd (CgnB; MST, Monolith NT 115, RED-NHS label, CgnB titrated, three independent samples, mean ± SD, read-out: KD (affinity) of CgnA–CgnB): 10.5 µM
affinity of CgnA–CgnB in presence of CgnE (CgnB; MST, CgnE 250 µM constant, CgnB titrated): No binding; also recorded: we did not observe binding

Reference: article PMC10070186, “Unusual peptide-binding proteins guide pyrroloindoline alkaloid formation in crocagin biosynthesis” (Nature Chemistry, 2023)
